The test system of assay [1] is Lolium spp. resistant to HRAC group A. The assay is described as follows: Greenhouse experiment, post-emergence treatment of ryegrass biotype resistant to HRAC group A. The format is in vivo. The following applies: post-emergence (PO, BBCH 11), about 3 weeks after application. How it is done:
(§1) In the standard design of the test, seeds of various broad-leaved weed and weed grass biotypes (origins) were sown in a 8-13 cm diameter pot filled with natural soil of a standard field soil (loamy silt; non-sterile) and covered with a covering soil layer of about 1 cm. The pots were then cultivated in a greenhouse (12-16 h light, temperature day 20-22° C., night 15-18° C.) until the time of application. The pots were treated on a laboratory track sprayer with spray liquors comprising the compositions according to the invention, mixtures of the prior art or components used individually. […]
(§2) About 3 weeks after the application, the soil action or/and foliar action was assessed visually according to a scale of 0-100% in comparison to an untreated comparative group: 0%=no noticable effect compared to the untreated comparative group; 100%=full effect compared to the untreated comparative group. […]
(§3) Insofar as herbicidal effects of the compositions according to the invention compared to mixtures of the prior art or compared to components applied individually against economically important mono- and dicotyledonous harmful plants were the center of attention, the synergistic herbicidal activities were calculated using Colby's formula (cf. S. R. Colby; Weeds 15 (1967), 20-22): […]
(§4) Δ=difference (%) of the measured value (%) to the expected value (%) (measured value minus expected value). […]

Assay [2] concerns Lolium spp. resistant to HRAC group B. The assay is described as follows: Greenhouse experiment, post-emergence treatment of ryegrass biotype resistant to HRAC group B. The format is in vivo. The following applies: post-emergence (PO, BBCH 11), about 3 weeks after application. How it is done:
as §1, §2, §3, §4

Consider `Nc1c([N+](=O)[O-])ccc(Oc2ccccc2)c1Cl` [(A) aclonifen, 2-chloro-6-nitro-3-phenoxybenzenamine], for which the “effect (measured value, visual scale 0-100% vs untreated)” value in assay [1] (225 g of AS/ha) was 25%; in assay [2] (225 g of AS/ha) it was 50%.

For `O=C(Nc1ccc(F)cc1F)c1cccnc1Oc1cccc(C(F)(F)F)c1` [(B) diflufenican, N-(2,4-difluorophenyl)-2-[3-(trifluoromethyl)phenoxy]-3-pyridinecarboxamide], the “effect (measured value, visual scale 0-100% vs untreated)” value is on record as 10% in assay [1] (30 g of AS/ha) and 5% in assay [2] (30 g of AS/ha).

The values above are taken from patent US20160286797A1, “Herbicidal Agents Containing Aclonifen” (BAYER CROPSCIENCE AKTIENGESELLSCHAFT, priority 2013, published 2016).
